Data from the NIST ThermoML archive (doi:10.1016/j.jct.2015.12.025).

Tests used:
[1] = xn = mol fraction of the nth substance listed; conditions: 102 kPa, Liquid, Vibrating tube method
[2] = refractive index (Na D-line) (dimensionless); xn = mol fraction of the nth substance listed; conditions: 102 kPa, Liquid, Standard Abbe refractometry

C[Si]1(CCC(F)(F)F)O[Si](C)(CCC(F)(F)F)O[Si](C)(CCC(F)(F)F)O1 (stereo not given) + COc1ccccc1
Conditions	mass density, 308.15 K [kg/m3]	mass density, 313.15 K [kg/m3]	mass density, 318.15 K [kg/m3]	mass density, 323.15 K [kg/m3]	refractive index, 308.15 K	refractive index, 313.15 K	refractive index, 318.15 K	refractive index, 323.15 K
[1], x1 = 0.0502	1018.9	1013.91	1008.94	1003.9	–	–	–	–
[1], x1 = 0.0999	1050.1	1044.97	1039.74	1034.53	–	–	–	–
[1], x1 = 0.15	1076.1	1070.73	1065.35	1059.95	–	–	–	–
[1], x1 = 0.1999	1097.79	1092.31	1086.77	1081.24	–	–	–	–
[1], x1 = 0.2501	1116.38	1110.76	1105.11	1099.47	–	–	–	–
[1], x1 = 0.2998	1132.25	1126.52	1120.84	1115.01	–	–	–	–
[1], x1 = 0.3498	1146.05	1140.29	1134.47	1128.62	–	–	–	–
[1], x1 = 0.4001	1158.32	1152.45	1146.5	1140.45	–	–	–	–
[1], x1 = 0.4497	1169.15	1163.11	1156.93	1151	–	–	–	–
[1], x1 = 0.4997	1178.65	1172.56	1166.57	1160.21	–	–	–	–
[1], x1 = 0.5453	1186.4	1180.31	1174.14	1168.04	–	–	–	–
[1], x1 = 0.6001	1194.94	1188.71	1182.53	1176.37	–	–	–	–
[1], x1 = 0.6498	1201.9	1195.72	1189.43	1183.1	–	–	–	–
[1], x1 = 0.6995	1208.15	1201.84	1195.66	1189.14	–	–	–	–
[1], x1 = 0.7502	1214.01	1207.72	1201.45	1194.99	–	–	–	–
[1], x1 = 0.8	1219.27	1212.9	1206.52	1200.09	–	–	–	–
[1], x1 = 0.8491	1223.97	1217.59	1211.19	1204.79	–	–	–	–
[1], x1 = 0.8997	1228.56	1222.13	1215.62	1209.23	–	–	–	–
[1], x1 = 0.9497	1232.67	1226.23	1219.73	1213.21	–	–	–	–
[1], x1 = 1	1236.63	1230.05	1223.55	1216.99	–	–	–	–
[2], x1 = 0.0502	–	–	–	–	1.48464	1.48208	1.47955	1.47695
[2], x1 = 0.0999	–	–	–	–	1.4658	1.4633	1.46089	1.45834
[2], x1 = 0.15	–	–	–	–	1.45042	1.44796	1.44565	1.44317
[2], x1 = 0.1999	–	–	–	–	1.43774	1.43532	1.43308	1.43068
[2], x1 = 0.2501	–	–	–	–	1.42699	1.42468	1.42242	1.42006
[2], x1 = 0.2998	–	–	–	–	1.41796	1.41563	1.41345	1.41113
[2], x1 = 0.3498	–	–	–	–	1.41011	1.40783	1.40566	1.40338
[2], x1 = 0.4001	–	–	–	–	1.40327	1.401	1.39886	1.39659
[2], x1 = 0.4497	–	–	–	–	1.39729	1.39509	1.39295	1.39069
[2], x1 = 0.4997	–	–	–	–	1.39198	1.3898	1.38766	1.38549
[2], x1 = 0.5453	–	–	–	–	1.38765	1.38551	1.38335	1.3812
[2], x1 = 0.6001	–	–	–	–	1.38297	1.38081	1.37871	1.37655
[2], x1 = 0.6498	–	–	–	–	1.37914	1.37703	1.37495	1.37279
[2], x1 = 0.6995	–	–	–	–	1.3757	1.37358	1.37151	1.36941
[2], x1 = 0.7502	–	–	–	–	1.3725	1.37039	1.36832	1.36625
[2], x1 = 0.8	–	–	–	–	1.3696	1.36751	1.36547	1.36338
[2], x1 = 0.8491	–	–	–	–	1.36697	1.36492	1.36288	1.36086
[2], x1 = 0.8997	–	–	–	–	1.3645	1.36245	1.36042	1.35837
[2], x1 = 0.9497	–	–	–	–	1.36221	1.36019	1.35818	1.35616
[2], x1 = 1	–	–	–	–	1.36011	1.35808	1.35609	1.35407
